Data: patent US5104889A, “Thiazole derivatives” (Otsuka Pharmaceutical Factory, Inc., priority 1986, dated 1992)
In brackets after ≈: the same amount, converted by molar mass.

Tested on: fetal bovine heart-derived endothelial cells (FBHE cells)
Experiment: Angiogenesis inhibiting activity test: inhibition of proliferation of cultured FBHE cells (neutral red uptake, 3 days)
Type: cell-based
Details: for IC50: Bos taurus, Endothelial cell, 3 days incubation, 10% FBS-added DME, 0.05% DMSO; for IC50 / FGF-/FGF+ ratio: FBHE cells; for FGF-/FGF+ ratio: ratio of IC50 without FGF to IC50 with FGF, 4320 min
Protocol: For use in this test, FBHE cells purchased from the ATCC were maintained by subculturing in a medium prepared by adding 20 ng/ml of fibroblast growth factor (FGF; Collaborative Research) to Dulbecco's modified Eagle's medium (DME; Nissui Seiyaku) supplemented with 10% fetal bovine serum (FBS). From two days before the start of the experiment, the addition of FGF was omitted and FBHE cells were cultured in DME with 10% FBS alone added. At the start of the experiment, the culture medium was removed, phosphate-buffered saline solution (PBS^(-); Nissui Seiyaku) was added instead, and cells were rinsed lightly. Then the PBS^(-) was removed, an adequate amount of 0.1% EDTA-0.2% trypsin solution was added and, after light rinsing, removed, and cells were stripped off. After addition of 10% FBS-added DME and sufficient pipetting, the cells stripped off were transferred to a centrifugal tube and centrifuged for washing (1,200 rpm, 5 minutes). The viable cell count was determined using a hemocytometer with the number of dead cells stained with trypan blue being substracted. The cell concentration was adjusted to 3×10^3 cells/well using 10% FBS-added DME. A cell suspension was thus prepared. […] For attaining test substance concentrations, serial double dilution was performed starting with 10 μg/ml. The following procedure was followed. Thus, to each well of 96-well Multiplates (Corning), there was added 50 μl of DME containing 10% FBS. Then, 50 μl of each test substance solution having the highest final concentration of 10 μg/ml was added to the well for the highest concentration and then serial dilution was carried out on each plate. Furthermore, 50 μl of FGF (5 ng/ml at maximum) was added to each well, followed by final addition of 100 μl of the cell suspension. The plates prepared by the above procedure were incubated in a carbon dioxide gas incubator for 3 days. After 3 days of incubation, neutral red was added to each well and the cells were allowed to take up the dye by 2 hours incubation in a carbon dioxide gas incubator. Thereafter, the cells were rinsed twice with PBS^(-) or physiological saline. Finally, 100 μl of acid alcohol (a 1:1 mixed solution prepared from 0.1 M aqueous monosodium phosphate solution and ethanol) was added to each well for dissolution thereinto of the dye taken up, and the absorbance of the resultant dye solution was determined using an absorptiometer. The absorbance values measured by the above procedure (3) for each dilution of each test substance with addition of FGF and without addition of FGF (normal condition) were plotted on a graph paper, and the test substance concentration required for 50% inhibition of the proliferation of cultured FBHE cells was determined from the graph obtained and expressed as an IC50 value.

[1] = 72 h, with addition of FGF (5 ng/ml at maximum)
[2] = 72 h, without addition of FGF (normal condition)

What does the source list for `Cc1nc(Nc2cc(C(C)(C)C)c(O)c(C(C)(C)C)c2)sc1C` [Example 11, 2,6-Di-tert-butyl-4-[(4,5-dimethyl-2-thiazolyl)amino]phenol]?
IC50 FGF- (72 h): 25.94 µg/mL (≈ 78 µM); IC50 [1]: 6.14 µg/mL (≈ 18.5 µM); FGF-/FGF+ ratio: 4.2

With `CC(C)(C)c1cc(Nc2nc(CO)cs2)cc(C(C)(C)C)c1O.Cl.Cl` [Example 25, 2,6-di-tert-butyl-4-[(4-hydroxymethyl-2-thiazolyl)amino]phenol dihydrochlo ride] as the molecule, how does the IC50 [1] read?
The IC50 was 0.92 µg/mL.

What about the IC50 [2] of the same molecule?
Its IC50 is 5.76 µg/mL.

And the “FGF-/FGF+ ratio” value?
The value was 6.3.

Which IC50 [1] does the source give for `CC(C)(C)c1cc(Nc2nccs2)cc(C(C)(C)C)c1O` [Example 2, 2,6-Di-tert-butyl-4-[(2-thiazolyl)amino]phenol] here?
Its IC50 is 0.89 µg/mL (≈ 2.92 µM).

And the IC50 [2]?
The IC50 was 10.7 µg/mL (≈ 35.1 µM).

And the “FGF-/FGF+ ratio” value?
Its value is 12.0.

How did the IC50 [1] turn out when `CCOC(=O)c1sc(Nc2cc(C(C)(C)C)c(O)c(C(C)(C)C)c2)nc1C` [Example 18, 2,6-Di-tert-butyl-4-[(4-methyl-5-ethoxycarbonyl-2-thiazolyl)amino]phenol] was run?
Its IC50 is 1.92 µg/mL (≈ 4.92 µM).

And the IC50 [2]?
Its IC50 is 11.9 µg/mL (≈ 30.5 µM).

And the “FGF-/FGF+ ratio” value?
Its value is 6.2.

`CCSc1sc(Nc2cc(C(C)(C)C)c(O)c(C(C)(C)C)c2)nc1C` [Example 12, 2,6-Di-tert-butyl-4-[(4-methyl-5-ethylthio-2-thiazolyl)amino]phenol] was tested. Which IC50 [1] did it give?
The IC50 was 1.55 µg/mL (≈ 4.09 µM).

And the IC50 [2]?
The IC50 was 6.53 µg/mL (≈ 17.2 µM).

And the “FGF-/FGF+ ratio” value?
Its value is 4.2.

`CC(C)(C)c1cc(Sc2nccs2)cc(C(C)(C)C)c1O` [Example 42, 2,6-Di-tert-butyl-4-(2-thiazolylthio)phenol] was tested. Which IC50 [1] did it give?
The IC50 was 1.85 µg/mL (≈ 5.75 µM).

What about the IC50 [2] of the same molecule?
The IC50 was 8.71 µg/mL (≈ 27.1 µM).

And the “FGF-/FGF+ ratio” value?
The value was 4.7.

Which results are given for `CCOC(=O)c1csc(Oc2cc(C(C)(C)C)c(O)c(C(C)(C)C)c2)n1` [Example 40, 2,6-di-tert-butyl-4-[(4-ethoxycarbonyl-2-thiazolyl)oxy]phenol]?
IC50 [1]: 0.74 µg/mL (≈ 1.96 µM); IC50 [2]: 5.72 µg/mL (≈ 15.2 µM); FGF-/FGF+ ratio: 7.7

How did the IC50 [1] turn out when `CC(C)(C)c1cc(Nc2nc(C(=O)NN)cs2)cc(C(C)(C)C)c1O` [Example 35, 2,6-di-di-tert-butyl-4-[(4-carbazoyl-2-thiazolyl)amino]phenol] was run?
The IC50 was 0.61 µg/mL (≈ 1.68 µM).

What about the IC50 [2] of the same molecule?
Its IC50 is 3.66 µg/mL (≈ 10.1 µM).

What about the “FGF-/FGF+ ratio” value of the same molecule?
Its value is 6.0.

For `CCCCCc1sc(Nc2cc(C(C)(C)C)c(O)c(C(C)(C)C)c2)nc1C` [Example 6], which IC50 [1] is on record?
Its IC50 is 2.18 µg/mL (≈ 5.61 µM).

What about the IC50 [2] of the same molecule?
Its IC50 is 9.21 µg/mL (≈ 23.7 µM).

What about the “FGF-/FGF+ ratio” value of the same molecule?
Its value is 4.2.
